# Results as given in patent US10143695B2 (priority 2016, dated 2018).
# Columns and labels:
# Type in all cases: cell-based
# [1] = test system: SKBR3 cells (HER2 expressing cells); assay: CellTiter-Glo cell viability assay, SKBR3; details: Homo sapiens, SK-BR-3; PBD compounds, 72 h incubation
# Protocol: (§1) PBD compounds and conjugates thereof were evaluated for their antiproliferation properties in tumor cell lines in vitro using CellTiter-Glo® (Promega Corp). Cells were plated in black walled 96-well plate and allowed to adhere overnight at 37° C. in a humidified atmosphere of 5% CO2. BT474, SKBR3, NCI-N87 cells (HER2 expressing cells), JIMT1 cells (HER2 medium expression level cells) and MCF7 cells (HER2 low expressing levels cells) and were plated at a density of 5,000 cells per well. The next day the medium was replaced with 50 μL fresh medium and 50 μL of 2× stocks of PBD compounds or antibody-PBD conjugate were added to appropriate wells, mixed and incubated for 72 h. CellTiter-Glo® reagent was added to the wells at room temperature and the luminescent signal was measured after 10 min using a SpectraMax M5 plate reader (Molecular Devices). Dose response curves were generated using SoftMax Pro software. IC50 values were determined from four-parameter curve fitting.
# [2] = test system: JIMT1 cells (HER2 medium expression level cells); assay: CellTiter-Glo cell viability assay, JIMT1; details: Homo sapiens, JIMT-1; PBD compounds, 72 h incubation
# Protocol: as §1
# [3] = test system: MCF7 cells (HER2 low expressing levels cells); assay: CellTiter-Glo cell viability assay, MCF7; details: Homo sapiens, MCF7; PBD compounds, 72 h incubation
# Protocol: as §1
# [4] = test system: NCI-N87 cells (HER2 expressing cells); assay: CellTiter-Glo cell viability assay, NCI-N87; details: Homo sapiens, NCI-N87; PBD compounds, 72 h incubation
# Protocol: as §1
# [5] = test system: BT474 cells (HER2 expressing cells); assay: CellTiter-Glo cell viability assay, BT474; details: Homo sapiens, BT-474; PBD compounds, 72 h incubation
# Protocol: as §1
SMILES,IC50 [1] [nM],IC50 [2] [nM],IC50 [3] [nM],IC50 [4] [nM],IC50 [5] [nM]
"C=C1CC2C=Nc3cc(OCCCC(=O)Nc4cn(C)c(C(=O)Nc5cc(C(=O)Nc6cc(C(=O)NCCCO)n(C)c6)n(C)c5)n4)c(OC)cc3C(=O)N2C1 (stereo in doubt) [Compound 56, (S,Z)-N-(5-(5-(3-hydroxypropylcarbamoyl)-1-methyl-1H-pyrrol-3-ylcarbamoyl)-1-methyl-1H-pyrrol-3-yl)-4-(4-(7-methoxy-2-methylene-5-oxo-2,3,5,11a-tetrahydro-1H-benzo[e]pyrrolo[1,2-a][1,4]diazepin-8-yloxy)butanamido)-1-methyl-1H-imidazole-2-carboxamide]",7.9,9,54.5,13.6,23.3
"C=C1C[C@H]2C=Nc3cc(OCCCC(=O)Nc4cn(C)c(C(=O)Nc5cc(C(=O)NCc6ccc(N)cc6)n(C)c5)n4)c(OC)cc3C(=O)N2C1 [Compound 3A, (S,Z)-N-(5-(4-aminobenzylcarbamoyl)-1-methyl-1H-pyrrol-3-yl)-4-(4-(7-methoxy-2-methylene-5-oxo-2,3,5,11a-tetrahydro-1H-benzo[e]pyrrolo[1,2-a][1,4]diazepin-8-yloxy)butanamido)-1-methyl-1H-imidazole-2-carboxamide]",9,91,214,14,69
"C=C1C[C@H]2C=Nc3cc(OCCCC(=O)Nc4cn(C)c(C(=O)Nc5cc(C(=O)Nc6cc(C(=O)NCc7ccc(N)cc7)n(C)c6)n(C)c5)n4)c(OC)cc3C(=O)N2C1 [Compound 4A, (S,Z)-N-(5-(5-(4-aminobenzylcarbamoyl)-1-methyl-1H-pyrrol-3-ylcarbamoyl)-1-methyl-1H-pyrrol-3-yl)-4-(4-(7-methoxy-2-methylene-5-oxo-2,3,5,11a-tetrahydro-1H-benzo[e]pyrrolo[1,2-a][1,4]diazepin-8-yloxy)butanamido)-1-methyl-1H-imidazole-2-carboxamide]",9.4,11.4,1000,24.1,26.8
"C=C1C[C@H]2C=Nc3cc(OCCCC(=O)Nc4cn(C)c(C(=O)Nc5cc(C(=O)N6Cc7ccc(N)cc7C6)n(C)c5)n4)c(OC)cc3C(=O)N2C1 [Compound 5A, (S,Z)-N-(5-(5-aminoisoindoline-2-carbonyl)-1-methyl-1H-pyrrol-3-yl)-4-(4-(7-methoxy-2-methylene-5-oxo-2,3,5,11a-tetrahydro-1H-benzo[e]pyrrolo[1,2-a][1,4]diazepin-8-yloxy)butanamido)-1-methyl-1H-imidazole-2-carboxamide]",0.97,16,24.2,5.3,2.9
"C=C1C[C@H]2C=Nc3cc(OCCCC(=O)Nc4cn(C)c(C(=O)Nc5cc(C(=O)Nc6cc(C(=O)N7Cc8ccc(N)cc8C7)n(C)c6)n(C)c5)n4)c(OC)cc3C(=O)N2C1 [Compound 6A, (S,Z)-N-(5-(5-(5-aminoisoindoline-2-carbonyl)-1-methyl-1H-pyrrol-3-ylcarbamoyl)-1-methyl-1H-pyrrol-3-yl)-4-(4-(7-methoxy-2-methylene-5-oxo-2,3,5,11a-tetrahydro-1H-benzo[e]pyrrolo[1,2-a][1,4]diazepin-8-yloxy)butanamido)-1-methyl-1H-imidazole-2-carboxamide]",1.5,8.9,17.1,4.2,5.3
C=C1C[C@H]2C=Nc3cc(OCCCC(=O)Nc4cn(C)c(C(=O)Nc5cc(C(=O)Nc6cc(C(=O)n7ccc8cc(OC)ccc87)n(C)c6)n(C)c5)n4)c(OC)cc3C(=O)N2C1 [Compound 7A],0.15,1.1,2.7,0.3,0.6
